This passage reports IC50 results from patent US7504410B2, “Chk-, Pdk- and Akt-inhibitory pyrimidines, their production and use as pharmaceutical agents” (Schering Aktiengesellschaft, priority 2002, dated 2009).

T2 sequence (P35968 20-1356, species assumed): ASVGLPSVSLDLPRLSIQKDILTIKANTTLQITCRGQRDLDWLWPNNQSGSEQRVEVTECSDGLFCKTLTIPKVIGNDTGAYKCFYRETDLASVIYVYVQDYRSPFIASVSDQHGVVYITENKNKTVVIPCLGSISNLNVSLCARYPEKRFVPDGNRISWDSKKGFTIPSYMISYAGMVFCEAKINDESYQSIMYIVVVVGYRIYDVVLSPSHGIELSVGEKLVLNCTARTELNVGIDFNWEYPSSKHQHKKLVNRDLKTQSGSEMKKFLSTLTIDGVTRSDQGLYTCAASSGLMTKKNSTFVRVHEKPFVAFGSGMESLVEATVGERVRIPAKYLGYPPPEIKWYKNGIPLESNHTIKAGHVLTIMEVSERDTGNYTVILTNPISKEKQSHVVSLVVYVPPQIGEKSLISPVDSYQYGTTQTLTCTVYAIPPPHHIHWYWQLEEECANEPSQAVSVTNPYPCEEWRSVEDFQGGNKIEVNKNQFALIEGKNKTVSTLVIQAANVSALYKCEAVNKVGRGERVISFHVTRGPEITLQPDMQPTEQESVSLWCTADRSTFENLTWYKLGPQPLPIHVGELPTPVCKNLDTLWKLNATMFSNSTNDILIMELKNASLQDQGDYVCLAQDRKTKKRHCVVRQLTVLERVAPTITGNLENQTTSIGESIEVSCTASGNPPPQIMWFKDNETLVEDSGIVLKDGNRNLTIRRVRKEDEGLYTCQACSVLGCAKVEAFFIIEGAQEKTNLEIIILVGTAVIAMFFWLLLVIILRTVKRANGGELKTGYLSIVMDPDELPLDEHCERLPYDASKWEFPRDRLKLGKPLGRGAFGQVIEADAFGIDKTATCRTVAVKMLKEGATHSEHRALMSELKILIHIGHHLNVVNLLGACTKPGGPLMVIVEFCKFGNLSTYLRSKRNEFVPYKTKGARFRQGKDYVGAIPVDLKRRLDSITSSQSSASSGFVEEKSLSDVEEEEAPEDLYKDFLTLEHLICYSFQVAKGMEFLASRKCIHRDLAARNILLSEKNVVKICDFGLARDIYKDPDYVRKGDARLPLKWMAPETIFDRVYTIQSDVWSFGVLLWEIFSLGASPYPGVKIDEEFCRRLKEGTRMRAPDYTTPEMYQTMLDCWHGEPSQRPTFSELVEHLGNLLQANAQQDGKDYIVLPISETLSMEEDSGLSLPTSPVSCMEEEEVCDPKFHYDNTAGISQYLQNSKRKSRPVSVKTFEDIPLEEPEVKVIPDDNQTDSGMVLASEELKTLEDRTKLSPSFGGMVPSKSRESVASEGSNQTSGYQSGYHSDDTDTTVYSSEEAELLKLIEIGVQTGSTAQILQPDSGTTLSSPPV

In the first assay the target is T1, Chk1 (Homo sapiens, UniProt O14757).
T1 construct: His6 (C); made in house; host or cells: Sf-9 insect cells (baculovirus)
T1 sequence (O14757 1-476): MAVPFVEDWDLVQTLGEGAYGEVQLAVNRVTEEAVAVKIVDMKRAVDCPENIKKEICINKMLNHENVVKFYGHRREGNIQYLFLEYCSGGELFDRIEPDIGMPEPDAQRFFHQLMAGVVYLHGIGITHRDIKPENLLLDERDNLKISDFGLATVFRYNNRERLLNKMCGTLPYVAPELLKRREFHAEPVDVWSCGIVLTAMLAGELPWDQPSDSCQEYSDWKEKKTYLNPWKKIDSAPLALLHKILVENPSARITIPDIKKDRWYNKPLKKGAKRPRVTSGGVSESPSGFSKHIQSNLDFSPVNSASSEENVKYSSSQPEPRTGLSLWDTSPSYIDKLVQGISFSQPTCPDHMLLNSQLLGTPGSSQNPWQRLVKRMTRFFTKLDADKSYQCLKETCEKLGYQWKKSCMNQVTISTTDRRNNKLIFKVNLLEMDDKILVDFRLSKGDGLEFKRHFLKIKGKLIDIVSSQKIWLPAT
Put plainly: Chk1 kinase assay (SPA). Format: biochemical. Particulars: read-out: Chk-1 IC50. From the text: Recombinant Chk1-His6-fusion protein, expressed in insect cells (Sf-9) and purified by Ni-NTA affinity chromatography was used as kinase. Alternatively, commercially available GST-Chk1-fusion protein (Upstate Biotechnology, Dundee, Scotland) can be used. As substrate for the kinase reaction the biotinylated peptide biotin-Arg-Ser-Gly-Leu-Tyr-Arg-Ser-Pro-Ser-Met-Pro-Glu-Asn-Leu-Asn-Arg-Pro-Arg-OH was used which can be purchased e.g. from the company Biosyntan GmbH (Berlin-Buch, Germany).
Chk1 (200 ng/measurement point) was incubated for 60 min at 22 °C in the presence of different concentrations of test compounds (0 μM and concentrations in the range 0.001-30 μM) in 30 μl assay buffer [50 mM Hepes/NaOH pH7.5, 10 mM MgCl2, 1 mM MnCl2, 0.1 mM sodium ortho-vanadate, 1.0 mM dithiothreitol, 0.5 μM adenosine-tri-phosphate (ATP), 1.9 μM substrate peptide (Biotin-Arg-Ser-Gly-Leu-Tyr-Arg-Ser-ProSer-Met-Pro-Glu-Asn-Leu-Asn-Arg-Pro-Arg-OH), 6 nCi/measurement point ^33P-gamma ATP, 0.008% NP40, 1.5% (v/v) dimethylsulfoxide]. The reaction was stopped by the addition of 20 μl of a suspension of streptavidine coated PVT-SPA-beads (0.15 mg/measurement point, from Amersham Biotech) in an aqueous EDTA/ATP-solution (20 mM EDTA, 50 μM ATP, 1% (v/v) Triton X-100 in PBS).
The resulting mixture was incubated further 16 h at 22° C. to allow the binding of the biotinylated peptide to the streptavidine coated PVT-SPA-beads and to allow the sedimentation of the beads. Subsequently the amount of 33P incorporated into the substrate peptide was evaluated by scintillation measurement in a Topcount NXT (Perkin-Elmer).
What is called IC50 is the concentration at which inhibition is half-maximal. As to `C#CCOc1nc(Nc2cc(NC(=O)[C@H](N)Cc3ccccc3)cc(NC(=O)N3CCCC3)c2)ncc1Br` [Example A16], the IC50 came out at 0.3 µM.

On to `C#CCOc1nc(Nc2cc(CO)cc(NC(=O)[C@H](N)Cc3ccccc3)c2)ncc1Br` [Example A17, (αR)-α-Amino-N-[3-[[5-bromo-4-(prop-2-ynyloxy)pyrimidin-2-yl]amino]-5-(hydroxymethyl)phenyl]benzenepropanamide], for which the IC50 amounted to 0.2 µM.

With `Brc1cnc(Nc2cccc(CN3CC=CC3)c2)nc1NCCc1c[nH]cn1` [Example 65], the half-maximal inhibitory concentration (IC50) was found to be 0.44 µM.

With `C#CCOc1nc(Nc2cc(CO)cc(NCCO)c2)ncc1Br` [Example A18, 3-[[5-Bromo-4-(prop-2-ynyloxy)pyrimidin-2-yl]amino]-5-[(2-hydroxyethyl)amino]benzenemethanol], the IC50 was 0.08 µM.

For the compound `O=C(Cc1ccc(Cl)cc1Cl)NCCCNc1nc(Nc2cccc(NC(=O)N3CCCC3)c2)ncc1Br` [Example 699], the IC50 was 0.02 µM.

Target in a further assay: not listed separately
Put plainly: PDK-1-dependent activation and subsequent enzymatic activity of AKT2 (SPA). Format: biochemical, human. Conditions: AKT2 activated by PDK-1 in the assay; read-out: Akt-2 inhibition IC50. On the procedure: PDK-1-dependent activation and subsequent enzymatic activity of AKT2: Purified human AKT2 activity was routinely measured in an assay in which the enzyme was first activated by PDK-1 in the presence of phosphatidylinositol-4,5-bisphosphate (PIP2). Once activated, AKT2-dependent phosphorylation of a peptide substrate was measured by scintillation proximity assay (SPA).
Phospholipid vesicles were prepared as follows: 2.2 mg each of phosphatidylcholine (Sigma Cat # P-1287) and phosphatidylserine (Sigma Cat #P-6641) were transferred to a borosilicate glass test tube and dried down under nitrogen. 1 mg of PIP2 (Biomol Cat #PH-106) was suspended in 9.5 ml of 10 mM HEPES, pH 7.5 and transferred to the dried lipids. The tube was vortexed until a milky suspension was produced. Then the tube was placed in a ice water-jacketed cup horn sonicator (Branson Instruments) and subjected to sonication for 20 min at medium power until a translucent phospholipid vesicle preparation was obtained. Aliquots of the vesicle suspension were frozen at −80 °C until needed.
Assays were performed in 96-well polypropylene V-bottom plates. Incubations were carried out for 2 hr at room temperature. The assay mixture contained in a volume of 60 μL: 15 mM MOPS, pH 7.2, 1 mg/ml bovine serum albumin, 18 mM betaglycerolphosphate, 0.7 mM dithiothreitol, 3 mM EGTA, 10 mM MgOAc, 7.5 (M ATP, 0.2 μCi of [γ-^33P]ATP, 7.5 μM biotinylated peptide substrate (biotin-ARRRDGGGAQPFRPRAATF), 0.5 μL of PIP2-containing phospholipid vesicles, 60 pg of purified recombinant human PDK-1, and 172 ng of purified recombinant human AKT2. Test compounds were added from stock solutions in DMSO. The final concentration of DMSO was 2.5%. Following incubation, 10 μL of the assay mixture was transferred to a 96-well clear-bottom polystyrene plate (Wallac Isoplate) containing 0.33 mg of streptavidin-coated SPA beads (Amersham Cat. # RPNQ0007) suspended in 200 μL of phosphate-buffered saline, pH 7.4, containing 50 mM EDTA and 0.1% Triton X-100. After brief shaking, the SPA beads were allowed to settle to the bottom of the plate overnight at room temperature. […] PDK-1 was added at sub-optimal levels so that the assay could sensitively detect inhibitors of AKT2 activation as well as direct AKT2 kinase inhibitors. The z′-factor for the assay was greater than 0.7.
Phosphorylation was readily observed, however, upon addition of purified activated human AKT1 (purchased from Upstate Biotechnology), independent of the presence or absence of added PDK-1 or PIP2-containing vesicles.
Consider `NC(=O)C1(C(=O)NCCCNc2nc(Nc3cccc(NC(=O)[C@@H]4CCCN4)c3)ncc2Br)CC1` [Example 492], for which the IC50 worked out at 0.023 µM.

Turning to `CC(C)(C(N)=O)C(=O)NCCCNc1nc(Nc2cccc(N3C(=O)CNC3=O)c2)ncc1Br` [Example 540], the IC50 was determined as 0.019 µM.

For the compound `CC(C)(C(N)=O)C(=O)NCCCNc1nc(Nc2cccc(NC(=O)[C@@H](N)c3ccccc3)c2)ncc1Br` [Example 521], the concentration for half-maximal inhibition (IC50) stood at 0.044 µM.

As for `CN1CC(=O)N(c2cccc(Nc3ncc(Br)c(NCCCNC(=O)[C@@H]4CSC(=O)N4)n3)c2)C1=O` [Example 546], the concentration for half-maximal inhibition (IC50) was 0.004 µM.

With `CC(C)(C(N)=O)C(=O)NCCCNc1nc(Nc2cccc(NC(=O)[C@H](N)Cc3ccccc3)c2)ncc1Br` [Example 504], the half-inhibitory concentration (IC50) is 0.024 µM.

As to `O=C(Nc1cccc(Nc2ncc(Br)c(NCCc3c[nH]cn3)n2)c1)N1CCCC1` [Example 220], the half-inhibitory concentration (IC50) stood at 0.006 µM.

A further assay concerns the target T2, VEGFR II (KDR) (Homo sapiens, UniProt P35968).
T2 construct: GST; made in house; host or cells: Sf-9 insect cells
Briefly: KDR kinase assay (HTRF). Format: biochemical.
Settings: not given
From the text: Recombinant KDR-GST-fusion protein, expressed in insect cells (Sf-9) and purified by Glutathion affinity chrormatography was used as kinase. Alternatively, commercially available GST-KDR-fusion protein (Proqinase, Freiburg i.Brsg., Germany) can be used. As substrate for the kinase reaction the biotinylated copolymer poly-(Glu, Tyr-4:1) which can be purchased e.g. from the company Cisbiointernational (Marcoule, France).
In a black low volume 384 well microtiterplate (Greiner, Frickenhausen, Germany) KDR (enzyme amount depending on lot, adjusted to give an dF of about 300-400) was incubated for 20 min at 22° C. in the presence of different concentrations of test compounds (0 μM and concentrations in the range 0.001-30 μM) in 15 μl assay buffer [50 mM Hepes/NaOH pH7.0, 25 mM MgCl2, 5 mM MnCl2, 0.5 mM sodium ortho-vanadate, 1.0 mM dithiothreitol, 1 μM adenosine-tri-phosphate (ATP), 23.5 μg/ml substrate [biotinylated poly-(Glu, Tyr; 4:1)], 1.5% (v/v) dimethylsulfoxide]. The reaction was stopped by the addition of 5 μl of a solution of the detection reagents [0.3 μg/ml Eu-W1024-labeled antiphosphotyrosine antibody (PT66) (Perkin-Elmer) and 4.125 μg/ml […] (Cisbiointernational, Marcoule, France)] in an aqueous EDTA-solution (250 mM EDTA, 0.1% (w/v) bovine serum albumine in 100 mM HEPES/NaOH pH 7.0).
The resulting mixture was incubated further 2 h at 22° C. to allow the binding of the biotinylated substrate and product to the SA-XL-665 and the EU labeled anti-phosphotyrosine antibody. Subsequently the amount of phosphate incorporated into the substrate was evaluated by resonance energy transfer measurement in a HTRF reader (Discovery, Perkin-Elmer).
The IC50 values are determined from the inhibitor concentration that is necessary to inhibit the phosphate incorporation to 50% of the uninhibited incorporation after removal of the blank reading (EDTA-stopped reaction).
(In TR-FRET formats the signal depends on donor and acceptor labels being close together.)
The compound `CCOC(=O)NCCCNc1nc(Nc2cccc(NC(=O)N3CCCC3)c2)ncc1Br` [Example 477] displayed an IC50 of 0.74 µM.

`O=C1N[C@H](C(=O)NCCCNc2nc(Nc3cccc(N4C(=O)CNC4=O)c3)ncc2Br)CS1` [Example 535] had an IC50 of 0.0026 µM.

On to `O=C1N[C@H](C(=O)NCCCNc2nc(Nc3cccc(NC(=O)N4CCCC4)c3)ncc2Br)CS1` [Example 452], for which the IC50 was determined as 0.0097 µM.

The compound `CN1CC(=O)N(c2cccc(Nc3ncc(Br)c(NCCCNC(=O)[C@@H]4CSC(=O)N4)n3)c2)C1=O` [Example 546] yielded an IC50 of 0.004 µM.

Regarding `C[C@@H](N)C(=O)NCCCNc1nc(Nc2cccc(NC(=O)N3CCCC3)c2)ncc1Br` [Example 512], the midpoint of inhibition, the IC50, lay at 1.4 µM.

The compound `O=C1CC[C@@H](C(=O)NCCCNc2nc(Nc3cccc(N4C(=O)CNC4=O)c3)ncc2Br)N1` [Example 539] had a 50% inhibitory concentration (IC50) of 0.0106 µM.

Compound `CCN(CCN1CCCCC1)C(=O)Nc1cccc(Nc2ncc(Br)c(NCCc3c[nH]cn3)n2)c1` [Example 389] had a half-maximal inhibitory concentration (IC50) of 0.33 µM.

On to `CC(C)CC(=O)NCCCNc1nc(Nc2cccc(NC(=O)N3CCCC3)c2)ncc1Br` [Example 473], for which it took 0.4 µM to reach half-maximal inhibition (IC50).

For the compound `CN1CC(=O)N(c2cccc(Nc3ncc(Br)c(NCCc4c[nH]cn4)n3)c2)C1=O` [Example 395], half-maximal inhibition (IC50) was put at 0.032 µM.
